# Assays:
# BRDT BD2 = BRDT BD2 (Homo sapiens, UniProt Q58F21); experiment: BRDT BD2 TR-FRET assay; format: binding
# Method: (§1) The BRD4 BD1/BD2 TR-FRET assay had been used routinely for this optimization work, and in order to better understand the BET BD1 domain selectivity profile, 31 was tested in TR-FRET BRD2, BRD3, and BRDT assays.
# (§2) All TR-FRET and hWB cytokine assays have been described previously.[54]
# LCK = biological target: T1, LCK (Homo sapiens, UniProt P06239); experiment: Cross screening: LCK inhibitor; format: biochemical
# T1 construct: purchased GSK enhanced cross-screening panel (in-house)
# T1 sequence (P06239 whole entry): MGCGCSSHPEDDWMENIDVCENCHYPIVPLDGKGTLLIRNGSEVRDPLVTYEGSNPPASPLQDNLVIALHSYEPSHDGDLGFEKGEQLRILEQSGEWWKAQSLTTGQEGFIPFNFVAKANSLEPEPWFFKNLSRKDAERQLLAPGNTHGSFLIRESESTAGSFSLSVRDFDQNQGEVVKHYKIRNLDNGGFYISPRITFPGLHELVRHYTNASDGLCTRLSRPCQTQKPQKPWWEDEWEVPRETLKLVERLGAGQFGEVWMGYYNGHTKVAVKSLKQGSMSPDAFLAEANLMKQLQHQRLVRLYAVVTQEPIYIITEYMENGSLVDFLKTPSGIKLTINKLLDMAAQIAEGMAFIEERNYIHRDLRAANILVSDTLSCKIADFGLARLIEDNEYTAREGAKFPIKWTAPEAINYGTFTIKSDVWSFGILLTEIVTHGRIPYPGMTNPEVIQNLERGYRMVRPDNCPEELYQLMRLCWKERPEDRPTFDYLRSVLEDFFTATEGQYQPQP
# Adenosine A2a = biological target: T2, Adenosine A2a (Homo sapiens, UniProt P29274); experiment: Cross screening: Adenosine A2a Human Agonist; format: biochemical
# T2 construct: purchased GSK enhanced cross-screening panel (in-house)
# BSEP = BSEP (Homo sapiens, UniProt O95342); experiment: Cross screening: BSEP inhibitor
# Nav1.5 = Nav1.5 (Homo sapiens, UniProt Q14524); experiment: Cross screening: Nav1.5 blocker
# Chain of Nav1.5 (Q14524 whole entry): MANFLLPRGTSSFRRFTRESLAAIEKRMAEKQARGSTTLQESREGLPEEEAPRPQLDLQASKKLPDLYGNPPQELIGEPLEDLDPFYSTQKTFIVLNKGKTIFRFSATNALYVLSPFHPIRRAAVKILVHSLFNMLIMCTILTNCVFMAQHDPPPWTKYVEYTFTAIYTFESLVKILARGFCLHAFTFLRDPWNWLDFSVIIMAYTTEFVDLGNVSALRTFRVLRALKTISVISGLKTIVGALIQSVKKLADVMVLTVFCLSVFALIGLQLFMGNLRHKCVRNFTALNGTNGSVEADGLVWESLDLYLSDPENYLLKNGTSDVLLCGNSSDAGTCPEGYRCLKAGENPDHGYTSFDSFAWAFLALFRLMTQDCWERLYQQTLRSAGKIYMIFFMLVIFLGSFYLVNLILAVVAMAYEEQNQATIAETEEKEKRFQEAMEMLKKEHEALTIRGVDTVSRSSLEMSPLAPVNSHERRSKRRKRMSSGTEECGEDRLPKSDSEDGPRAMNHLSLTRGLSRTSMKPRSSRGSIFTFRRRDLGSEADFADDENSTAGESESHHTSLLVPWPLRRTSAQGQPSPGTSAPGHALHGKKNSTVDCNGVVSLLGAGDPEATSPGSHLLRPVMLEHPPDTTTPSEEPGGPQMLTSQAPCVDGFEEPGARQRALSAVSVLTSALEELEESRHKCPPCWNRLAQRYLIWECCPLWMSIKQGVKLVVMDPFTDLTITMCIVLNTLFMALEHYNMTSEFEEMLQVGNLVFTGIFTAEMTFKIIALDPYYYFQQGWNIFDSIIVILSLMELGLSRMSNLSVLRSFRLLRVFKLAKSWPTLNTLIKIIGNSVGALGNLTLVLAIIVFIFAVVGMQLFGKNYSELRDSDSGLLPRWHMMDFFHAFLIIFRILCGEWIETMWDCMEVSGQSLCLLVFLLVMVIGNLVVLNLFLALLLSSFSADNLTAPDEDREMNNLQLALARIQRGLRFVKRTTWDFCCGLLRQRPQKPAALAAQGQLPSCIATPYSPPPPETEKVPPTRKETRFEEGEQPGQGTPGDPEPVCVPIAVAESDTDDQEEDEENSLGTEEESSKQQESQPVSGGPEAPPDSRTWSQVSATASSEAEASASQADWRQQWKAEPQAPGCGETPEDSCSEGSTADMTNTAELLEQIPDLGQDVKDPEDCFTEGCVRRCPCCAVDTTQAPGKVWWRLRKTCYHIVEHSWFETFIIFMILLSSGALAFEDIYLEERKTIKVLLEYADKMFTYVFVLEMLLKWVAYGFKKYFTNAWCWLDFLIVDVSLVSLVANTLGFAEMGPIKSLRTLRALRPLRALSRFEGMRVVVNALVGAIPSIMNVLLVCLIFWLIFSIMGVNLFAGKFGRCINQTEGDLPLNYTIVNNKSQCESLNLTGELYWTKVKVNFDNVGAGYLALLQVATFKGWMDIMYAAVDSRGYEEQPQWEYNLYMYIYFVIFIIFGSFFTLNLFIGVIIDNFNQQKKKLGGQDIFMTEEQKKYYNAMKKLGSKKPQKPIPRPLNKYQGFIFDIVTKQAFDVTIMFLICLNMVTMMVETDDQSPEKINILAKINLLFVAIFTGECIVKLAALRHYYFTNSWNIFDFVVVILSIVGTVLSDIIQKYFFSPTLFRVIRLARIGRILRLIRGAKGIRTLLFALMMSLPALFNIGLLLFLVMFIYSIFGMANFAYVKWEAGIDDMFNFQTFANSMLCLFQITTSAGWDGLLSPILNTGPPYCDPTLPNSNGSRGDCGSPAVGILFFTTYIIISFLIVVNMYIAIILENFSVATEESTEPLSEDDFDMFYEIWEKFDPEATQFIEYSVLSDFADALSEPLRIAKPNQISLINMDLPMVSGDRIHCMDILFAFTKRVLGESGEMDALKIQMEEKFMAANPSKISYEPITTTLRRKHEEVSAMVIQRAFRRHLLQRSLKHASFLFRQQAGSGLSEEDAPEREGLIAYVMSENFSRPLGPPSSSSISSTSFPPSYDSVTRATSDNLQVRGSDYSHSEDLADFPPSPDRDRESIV
# CREBBP = biological target: T3, CREBBP (Homo sapiens, UniProt Q92793); experiment: BROMOscan CREBBP; format: binding
# T3 construct: ≥2000-fold selectivity over all 20 non-BET bromodomains tested; purchased DiscoverX
# T3 sequence (Q92793 1085-1192 limits assumed): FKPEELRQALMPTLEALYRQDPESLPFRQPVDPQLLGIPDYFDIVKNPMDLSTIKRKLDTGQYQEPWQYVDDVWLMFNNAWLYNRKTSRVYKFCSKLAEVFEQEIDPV
# Method: as §1
# (§3) [52] BROMOscan recombinant protein binding assays were carried out at DiscoverX. (accessed April 4, 2023).
# PDE4B = biological target: T4, PDE4B (Homo sapiens, UniProt Q07343); experiment: Cross screening: PDE4B antagonist; format: biochemical
# T4 construct: purchased GSK enhanced cross-screening panel (in-house)
# ATAD2A = biological target: T5, ATAD2A (Homo sapiens, UniProt Q6PL18); experiment: BROMOscan ATAD2A; format: binding
# T5 construct: ≥2000-fold selectivity over all 20 non-BET bromodomains tested; purchased DiscoverX
# T5 sequence (Q6PL18 980-1092 limits assumed): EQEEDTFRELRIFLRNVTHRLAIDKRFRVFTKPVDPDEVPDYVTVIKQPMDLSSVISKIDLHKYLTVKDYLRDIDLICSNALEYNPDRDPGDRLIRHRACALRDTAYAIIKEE
# Method: as §1, §3
# Kv1.5 (KCNA5) = biological target: T6, Kv1.5 (KCNA5) (Homo sapiens, UniProt P22460); experiment: Cross screening: Kv1.5 (KCNA5) blocker; format: biochemical
# T6 construct: purchased GSK enhanced cross-screening panel (in-house)
# ATAD2B = biological target: T7, ATAD2B (Homo sapiens, UniProt Q9ULI0); experiment: BROMOscan ATAD2B; format: binding
# T7 construct: ≥2000-fold selectivity over all 20 non-BET bromodomains tested; purchased DiscoverX
# Method: as §1, §3
# SMARCA2 = biological target: T8, SMARCA2 (Homo sapiens, UniProt P51531); experiment: BROMOscan SMARCA2; format: binding
# T8 construct: ≥2000-fold selectivity over all 20 non-BET bromodomains tested; purchased DiscoverX
# Method: as §1, §3
# BRD2 BD2 = biological target: T9, BRD2 BD2 (Homo sapiens, UniProt P25440); experiment: BRD2 BD2 TR-FRET assay; format: binding
# T9 construct: BRD2 BD2; purchased DiscoverX
# T9 sequence (P25440 344-453 limits assumed): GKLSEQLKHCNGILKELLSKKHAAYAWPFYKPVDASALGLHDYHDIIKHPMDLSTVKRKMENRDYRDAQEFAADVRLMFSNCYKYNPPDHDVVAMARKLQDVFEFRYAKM
# Method: as §1, §2
# BET BD1 = experiment: BET family BD1/BD2 profiling (TR-FRET, BROMOscan); format: binding, human
# Method: as §1, §2, §3
# M2 (CHRM2) [1] = biological target: T10, M2 (CHRM2) (Homo sapiens, UniProt P08172); experiment: Cross screening: M2 (CHRM2) antagonist; format: biochemical
# T10 construct: purchased GSK enhanced cross-screening panel (in-house)
# T10 sequence (P08172 whole entry): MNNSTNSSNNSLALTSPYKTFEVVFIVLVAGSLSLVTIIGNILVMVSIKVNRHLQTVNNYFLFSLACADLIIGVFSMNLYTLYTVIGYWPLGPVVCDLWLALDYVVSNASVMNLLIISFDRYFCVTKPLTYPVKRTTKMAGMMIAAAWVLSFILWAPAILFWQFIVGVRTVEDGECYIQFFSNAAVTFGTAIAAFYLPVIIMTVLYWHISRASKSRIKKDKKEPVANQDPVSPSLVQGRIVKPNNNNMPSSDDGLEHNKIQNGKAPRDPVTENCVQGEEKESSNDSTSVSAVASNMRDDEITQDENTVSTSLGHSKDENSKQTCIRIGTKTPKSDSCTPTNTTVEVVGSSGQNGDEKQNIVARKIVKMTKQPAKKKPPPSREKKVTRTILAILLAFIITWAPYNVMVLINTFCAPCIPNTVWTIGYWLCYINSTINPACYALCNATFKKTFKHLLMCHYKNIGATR
# M2 (CHRM2) [2] = biological target: T10, M2 (CHRM2); experiment: Cross screening: M2 (CHRM2) Human Ag; format: biochemical
# 5-HT2C = biological target: T11, 5-HT2C (Homo sapiens, UniProt P28335); experiment: Cross screening: 5-HT2C Agonist; format: biochemical
# T11 construct: purchased GSK enhanced cross-screening panel (in-house)
# BAZ2A = biological target: T12, BAZ2A (Homo sapiens, UniProt Q9UIF9); experiment: BROMOscan BAZ2A; format: binding
# T12 construct: ≥2000-fold selectivity over all 20 non-BET bromodomains tested; purchased DiscoverX
# T12 sequence (Q9UIF9 1793-1897 limits assumed): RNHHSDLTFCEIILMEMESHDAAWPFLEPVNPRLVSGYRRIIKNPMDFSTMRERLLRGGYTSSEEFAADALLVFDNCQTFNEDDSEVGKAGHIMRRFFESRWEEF
# Method: as §1, §3
# OPRM1 = biological target: T13, OPRM1 (Homo sapiens, UniProt P35372); experiment: Cross screening: OPRM1 Agonist; format: biochemical
# T13 construct: purchased GSK enhanced cross-screening panel (in-house)
# NMDA 1A/2B = biological target: T14, NMDA 1A/2B (Homo sapiens, UniProt Q05586+Q13224); experiment: Cross screening: NMDA 1A/2B antagonist; format: biochemical
# T14 construct: purchased GSK enhanced cross-screening panel (in-house)
# T14 sequence (Q13224 27-1484, other chains not shown): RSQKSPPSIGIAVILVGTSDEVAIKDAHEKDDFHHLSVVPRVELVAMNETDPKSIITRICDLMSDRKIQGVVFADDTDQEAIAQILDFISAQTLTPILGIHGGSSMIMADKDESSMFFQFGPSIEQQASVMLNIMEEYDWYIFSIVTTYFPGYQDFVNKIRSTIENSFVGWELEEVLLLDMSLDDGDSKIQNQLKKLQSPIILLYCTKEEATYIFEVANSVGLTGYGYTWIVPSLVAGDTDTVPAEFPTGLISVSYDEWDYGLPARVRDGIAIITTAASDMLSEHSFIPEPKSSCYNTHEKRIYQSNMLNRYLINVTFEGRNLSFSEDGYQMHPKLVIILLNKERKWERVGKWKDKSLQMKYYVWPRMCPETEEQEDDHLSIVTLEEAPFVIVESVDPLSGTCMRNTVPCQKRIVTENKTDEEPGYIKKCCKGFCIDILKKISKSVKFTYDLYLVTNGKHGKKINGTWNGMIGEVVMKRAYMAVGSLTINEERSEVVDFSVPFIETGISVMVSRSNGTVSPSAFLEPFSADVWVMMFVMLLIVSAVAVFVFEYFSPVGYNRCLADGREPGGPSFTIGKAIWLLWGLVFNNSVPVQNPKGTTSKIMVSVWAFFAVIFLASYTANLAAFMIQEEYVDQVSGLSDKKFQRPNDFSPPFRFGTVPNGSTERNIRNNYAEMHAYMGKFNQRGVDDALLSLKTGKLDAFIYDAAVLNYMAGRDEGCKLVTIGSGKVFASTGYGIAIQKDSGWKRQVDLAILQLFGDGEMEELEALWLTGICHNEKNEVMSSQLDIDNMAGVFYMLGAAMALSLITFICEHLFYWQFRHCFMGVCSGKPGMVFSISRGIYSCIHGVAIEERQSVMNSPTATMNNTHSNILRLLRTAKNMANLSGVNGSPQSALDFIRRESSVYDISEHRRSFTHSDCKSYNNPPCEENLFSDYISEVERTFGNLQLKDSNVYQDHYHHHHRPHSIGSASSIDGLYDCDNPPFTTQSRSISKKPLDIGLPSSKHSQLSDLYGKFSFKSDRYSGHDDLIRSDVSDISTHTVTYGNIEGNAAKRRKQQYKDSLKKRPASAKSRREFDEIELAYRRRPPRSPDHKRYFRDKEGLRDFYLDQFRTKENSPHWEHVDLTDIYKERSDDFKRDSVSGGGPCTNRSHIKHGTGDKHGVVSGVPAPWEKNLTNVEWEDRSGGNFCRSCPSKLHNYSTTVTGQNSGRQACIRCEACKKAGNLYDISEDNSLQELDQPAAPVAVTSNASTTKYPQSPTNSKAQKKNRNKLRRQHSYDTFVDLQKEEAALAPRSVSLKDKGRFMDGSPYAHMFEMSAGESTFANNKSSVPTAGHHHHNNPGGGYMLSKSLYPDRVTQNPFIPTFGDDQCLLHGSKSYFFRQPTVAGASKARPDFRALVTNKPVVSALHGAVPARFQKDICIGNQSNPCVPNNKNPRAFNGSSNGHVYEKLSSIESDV
# Alpha 1 nAChR = biological target: T15, Alpha 1 nAChR (Homo sapiens, UniProt P02708+P07510+Q07001); experiment: Cross screening: Alpha 1 nAChR Antagonist; format: biochemical
# T15 construct: purchased GSK enhanced cross-screening panel (in-house)
# [3] = tested on: pharmacologically relevant off-targets; experiment: GSK enhanced cross-screening panel (whole panel); conditions: no activity at the concentrations tested
# hCav1_2 = biological target: T16, hCav1_2 (Homo sapiens, UniProt Q13936); experiment: Cross screening: hCav1_2 Blocker; format: biochemical
# T16 construct: purchased GSK enhanced cross-screening panel (in-house)
# BRD9 = biological target: T17, BRD9 (Homo sapiens, UniProt Q9H8M2); experiment: BROMOscan BRD9; format: binding
# T17 construct: ≥2000-fold selectivity over all 20 non-BET bromodomains tested; purchased DiscoverX
# T17 sequence (Q9H8M2 136-240 limits assumed): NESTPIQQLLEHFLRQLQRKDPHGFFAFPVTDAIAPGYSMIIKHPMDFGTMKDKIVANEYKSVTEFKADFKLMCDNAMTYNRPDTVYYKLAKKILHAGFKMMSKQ
# Method: as §1, §3
# 5-HT2A = biological target: T18, 5-HT2A (Homo sapiens, UniProt P28223); experiment: Cross screening: 5-HT2A antagonist; format: biochemical
# T18 construct: purchased GSK enhanced cross-screening panel (in-house)
# Alpha 1B = biological target: T19, Alpha 1B (Homo sapiens, UniProt P35368); experiment: Cross screening: Alpha 1B antagonist; format: biochemical
# T19 construct: purchased GSK enhanced cross-screening panel (in-house)
# [4] = tested on: Phospholipoidosis induction; experiment: Cross screening: Phospholipoidosis induction
# Beta2 Adrenoceptor = biological target: T20, Beta2 Adrenoceptor (Homo sapiens, UniProt P07550); experiment: Cross screening: Beta2 Adrenoceptor Human Agonist; format: biochemical
# T20 construct: purchased GSK enhanced cross-screening panel (in-house)
# OATP1B1 = OATP1B1 (Homo sapiens, UniProt Q9Y6L6); experiment: Cross screening: OATP1B1 inhibitor
# Dopamine D2 = biological target: T21, Dopamine D2 (Homo sapiens, UniProt P14416); experiment: Cross screening: Dopamine D2 Agonist; format: biochemical
# T21 construct: purchased GSK enhanced cross-screening panel (in-house)
# BRD4 BD1 = format: binding, human; conditions: TR-FRET
# Method: As a strategic decision, every compound synthesized across all of GSK’s bromodomain research projects was tested in both a BRD4 BD1 and a BRD4 BD2 TR-FRET assay as part of tier 1 data generation. […] LipE is a straightforward, yet powerful metric for medicinal chemistry teams to normalize potency relative to lipophilicity, a critical factor both for parameters of the human dose equation and also for promiscuity.[43],[44] To aid interpretation, diagonal lines representing different LipE values are shown, with the most desirable space found toward the top left-hand area of the plot representing molecules with the comparatively highest potency per unit of lipophilicity.
# as §2
# Aurora B = biological target: T22, Aurora B (Homo sapiens, UniProt Q96GD4); experiment: Cross screening: Aurora B inhibitor; format: biochemical
# T22 construct: purchased GSK enhanced cross-screening panel (in-house)
# 5-HT3 = biological target: T23, 5-HT3 (Homo sapiens, UniProt P46098); experiment: Cross screening: 5-HT3 Agonist; format: biochemical
# T23 construct: purchased GSK enhanced cross-screening panel (in-house)
# KCNQ1 = KCNQ1 (Homo sapiens, UniProt P51787); experiment: Cross screening: KCNQ1 blocker
# PBRM1 BD2 = biological target: T24, PBRM1 BD2 (Homo sapiens, UniProt Q86U86); experiment: BROMOscan PBRM1 BD2; format: binding
# T24 construct: PBRM1 BD2; purchased DiscoverX
# Method: as §1, §3
# Alpha 2C Adrenoceptor = biological target: T25, Alpha 2C Adrenoceptor (Homo sapiens, UniProt P18825); experiment: Cross screening: Alpha 2C Adrenoceptor agonist; format: biochemical
# T25 construct: purchased GSK enhanced cross-screening panel (in-house)
structure (smiles),measurement,setting,value
"Cc1cc(-c2nc3ccccc3n2C[C@@H]2CCCN(C(=O)C3CCN(C(C)C)CC3)C2)cn(C)c1=O [Compound 31, (S)-5-(1-((1-(1-Isopropylpiperidine-4-carbonyl)piperidin-3-yl)methyl)-1H-benzo [d]imidazole-2-yl)-1,3-dimethylpyridin-2(1H)-one]",BRDT BD2 TR-FRET pIC50,BRDT BD2,4.5
same,pXC50 LCK inhibitor,LCK,< 4.5
same,pXC50 Adenosine A2a Human Agonist,Adenosine A2a,< 4.0
same,pXC50 BSEP inhibitor,BSEP,< 3.7
same,pXC50 Nav1.5 blocker,Nav1.5,< 4.3
same,Kd,CREBBP,20 µM
same,pXC50 PDE4B antagonist,PDE4B,< 4.0
same,Kd,ATAD2A,> 31.6 µM
same,pXC50 Kv1.5 (KCNA5) blocker,Kv1.5 (KCNA5),< 4.3
same,Kd,ATAD2B,> 31.6 µM
same,Kd,SMARCA2,> 31.6 µM
same,BRD2 BD2 TR-FRET pIC50,BRD2 BD2,5.4
same,BD1 domain selectivity over BD2 across the four isoforms,"BET BD1; TR-FRET BRD2, BRD3, BRD4, BRDT",at least 400 fold
same,BET BD1 domain selectivity,BET BD1; depending on protein and assay format,300–1000 fold
same,pXC50 M2 (CHRM2) antagonist,M2 (CHRM2) [1],< 4.3
same,pXC50 M2 (CHRM2) Human Ag,M2 (CHRM2) [2],< 4.3
same,pXC50 5-HT2C Agonist,5-HT2C,< 4.0
same,Kd,BAZ2A,> 31.6 µM
same,pXC50 OPRM1 Agonist,OPRM1,< 4.0
same,pKa,pKa of the basic amine,9.6
same,pXC50 NMDA 1A/2B antagonist,NMDA 1A/2B,< 4.0
same,pXC50 Alpha 1 nAChR Antagonist,Alpha 1 nAChR,< 4.2
same,XC50 in enhanced cross-screening panel,[3],> 25 µM
same,pXC50 in enhanced cross-screening panel,[3],< 4.6
same,pXC50 hCav1_2 Blocker,hCav1_2,< 4.0
same,Kd,BRD9,25.1 µM
same,pXC50 5-HT2A antagonist,5-HT2A,< 4.0
same,pXC50 Alpha 1B antagonist,Alpha 1B,< 4.6
same,pXC50 Phospholipoidosis induction,[4],< 4
same,pXC50 Beta2 Adrenoceptor Human Agonist,Beta2 Adrenoceptor,< 4.0
same,pXC50 OATP1B1 inhibitor,OATP1B1,< 4.3
same,pXC50 Dopamine D2 Agonist,Dopamine D2,< 4.0
same,BRD4 BD1 FRET pIC50,BRD4 BD1,7.8
same,fold selectivity (BRD4 BD1 over BRD4 BD2),BRD4 BD1,1000 fold
same,pXC50 Aurora B inhibitor,Aurora B,< 4.5
same,pXC50 5-HT3 Agonist,5-HT3,< 4.3
same,pXC50 KCNQ1 blocker,KCNQ1,< 4.6
same,Kd,PBRM1 BD2,> 31.6 µM
same,pXC50 Alpha 2C Adrenoceptor agonist,Alpha 2C Adrenoceptor,< 4.0
